The nature of data set [1]: Solubility by serial addition of solvent to a known mass of the TZD until full dissolution. The format is physicochemical. As to the method: The solubility of rosiglitazone maleate and pioglitazone hydrochloride in various solvents was tested by a standard method, i.e., serial addition of solvent to a known mass of the TZD compound, until full dissolution was observed. Additional solubility results were obtained from the literature. […] This phenomenon occurred in formulations comprising water, as well as formulations lacking water. […] Next, the solubility of troglitazone in various solvents was tested by a standard method, i.e., serial addition of solvent to a known mass of troglitazone, until full dissolution was observed. Additional solubility results were obtained from the literature.

For data set [2] the following is noted: cited from earlier work; for solubility in ethanol: background statement, temperature not stated.
The mark [3] stands for this setting: solvent: 70% ethanol, 27% PG, 3% oleic acid.
Setting [4] is: solvent: 70% ethanol, 30% propylene glycol (PG).

Where a name gives a salt, the structure may show the parent alone. Read-outs that look alike come from different tables or passages of the source.

`CCc1ccc(CCOc2ccc(CC3SC(=O)NC3=O)cc2)nc1` (stereo not drawn) [pioglitazone hydrochloride]: the “Solubility at 25° C.” value is given as about 9 mg/g in data set [1] (solvent: 65% ethanol, 25% PG, 7% water, 3% oleic acid); about 9 mg/g in data set [1] (setting [3]); 4 mg/mL in data set [2] (solvent: Ethanol); 0.05 mg/mL in data set [2] (solvent: Water). Moreover, in data set [2], the solubility in ethanol was about 4 mg/mL.

For `CN(CCOc1ccc(CC2SC(=O)NC2=O)cc1)c1ccccn1` (stereo not drawn) [rosiglitazone maleate], the “increase of solubility in the vehicle on addition of oleic acid” value was “over 75 fold” in data set [1] (about 3% w/w oleic acid added to ethanol-based vehicle) and “about 3 fold” in data set [1] (about 3% w/w oleic acid added to isopropanol-based vehicle). Also, the “Solubility at 25° C.” value is about 10 mg/g in data set [1] (solvent: 63% ethanol, 24% PG, 10% water, 3% oleic acid); about 10 mg/g in data set [1] (setting [3]); 0.13 mg/g in data set [1] (setting [4]); 1.2 mg/g in data set [1] (solvent: 70% isopropyl alcohol, 27% PG, 3% oleic acid); 0.4 mg/g in data set [1] (solvent: 70% isopropyl alcohol, 30% PG); 0.25 mg/mL in data set [2] (solvent: Ethanol). In addition, in data set [2], the solubility in ethanol entry is reported as “about 0.25 mg/mL”.

For the molecule `Cc1c(C)c2c(c(C)c1O)CCC(C)(COc1ccc(CC3SC(=O)NC3=O)cc1)O2` (stereo not drawn) [troglitazone], the “Solubility at 25° C.” value in data set [1] (setting [3]) is 0.6 mg/g; in data set [1] (setting [4]) it was 0.3 mg/g; in data set [2] (solvent: Ethanol) it was 0.3 mg/mL^b; in data set [2] (solvent: Water), 0.02 mg/mL^a.

These data come from patent US20160206606A1, “TOPICAL COMPOSITIONS COMPRISING A THIAZOLIDINEDIONE” (Topokine Therapeutics, Inc., priority 2014, published 2016).
